# Data as given in patent US6403617B1, “Diaminopyridine-containing thiourea inhibitors of herpes viruses” (American Home Products Corp., priority 1998, dated 2002).
# Tests used:
# HCMV wild-type = experiment: HCMV yield assay; assay type: cell-based, Human Cytomegalovirus; conditions: human foreskin fibroblasts, reduction of virus yield by 50%; for IC50: Human betaherpesvirus 5, Fibroblast, read-out: IC50 (ug/ml) HCMV
# Protocol: Yield assay. Monolayer cultures of human foreskin fibroblasts are infected with HCMV wild-type, typically at a multiplicity of infection equal to 0.2, in the presence of inhibitor compound (varying concentrations). At three days post-infection, total virus produced in these cultures (i.e. virus yield) is assessed by harvesting and titering the virus in 12-well plates of cultured human foreskin fibroblasts (done in the absence of inhibitor). Plaques are quantified at 2 weeks post-infection. An inhibitor of HCMV is identified by the reduction in titer of virus yield in the presence, compared to the titer in the absence of compound. In this assay, the relative anti-HCMV activity of an inhibitor is typically determined by calculating the IC50 or IC90 value, that is, the amount of compound required to reduce the virus yield by 50% or 90%, respectively. Table I describes IC50 data for compounds tested against HCMV.
# HSV-1 = experiment: HSV Antiviral (ELISA) Assay; assay type: cell-based, herpes simplex virus type 1; conditions: Human alphaherpesvirus 1; Vero cells, HSV-1, about 24 hours post-infection; read-out: IC50 (ug/ml) HSV
# Protocol: Vero cells (ATCC #CCL-81) are plated on 96-well tissue cultugre plates at 3.5×10^4 cells per 100 μl tissue culture DMEM (Dulbecco's modified Eagle media) supplemented with 2% fetal bovine serum (FBS) in each well. After overnight incubation @ 37° C. (in 5% CO2) and 30 minutes prior to infection with HSV-1 (multiplicity of infection equal to 0.006), cells are either untreated, or treated with test compound (multiple concentrations) or reference standard drug control. After approximately 24 hours post-infection incubation @ 37° C. (in 5% CO2), cells are fixed for ELISA assay. The primary antibody is murine anti-HSV glycoprotein D monoclonal primary antibody and the secondary antibody is goat anti-mouse IgG linked to β-galactosidase. Thus the extent of viral replication is determined by assessing β-galactosidase activity by quantifying the generation of the 4-methyl umbelliferone fluorescent cleavage product after addition of the methyl umbelliferyl-β-D-galactoside (Sigma #M1633) substrate on a microfluorimeter (365 nm for excitation and 450 nm for emission). Antiviral activity (IC50) of the test compound is determined by comparing the flourescence obtained in absence of compound to that obtained in the presence of compound.
# VZV strain Ellen = experiment: VZV Antiviral (ELISA) Assay; assay type: cell-based, varicella-zoster virus; conditions: human foreskin fibroblast cells, three days; for inhibition at 10 µg/mL / IC50: Human alphaherpesvirus 3, 72 h; for inhibition at 10 µg/mL: read-out: % inhibition 10 ug/ml VZV, 10 ug/ml; for IC50: read-out: IC50 (ug/ml) VZV
# Protocol: For the generation of stock VZV to be used in the assay, VZV strain Ellen (ATCC #VR-1367) is used to infect human foreskin fibroblast (HFF) cells at low multiplicity (less than 0.1) and incubated overnight at 37° C. in 5% CO2. After the overnight incubation, the mixture of uninfected and VZV-infected HFF infected cells are then harvested and added to each well of 96-well plates (3.5×10^4 cells in 100 μl DMEM supplemented with 2% FBS) which contain test compound or the reference standard drug control (in 100 μl DMEM supplemented with 2% FBS per well). These cells are incubated for three days at 37° C. in 5% CO2, then fixed for ELISA assay. The primary antibody is murine anti-VZV glycoprotein II monoclonal antibody (Applied Biosystems, Inc. #13-145-100) and the secondary antibody is goat anti-mouse IgG linked to β-galactosidase. Thus the extent of viral replication is determined by assessing β-galactosidase activity by quantifying the generation of the 4-methyl umbelliferone fluorescent cleavage product after addition of the methyl umbelliferyl-β-D-galactoside (Sigma #M1633) substrate on a microfluorimeter (365 nm for excitation and 450 nm for emission). Antiviral activity (IC50) of the test compound is determined by comparing the flourescence obtained in absence of compound to that obtained in the presence of compound.
compound,measurement,setting,value
"COc1cc(OC)c(NC(=S)Nc2ccc(NC(=O)c3ccccc3C)nc2)cc1Cl [Example 283, N-[5-[[[(5-Chloro-2,4-dimethoxyphenyl)amino]thioxomethyl]amino]-2-pyridinyl]-2-methylbenzamide]",IC50,HCMV wild-type,7 µg/mL
same,IC50,HSV-1,0.6 µg/mL
same,inhibition at 10 µg/mL,VZV strain Ellen,17%
same,IC50,VZV strain Ellen,> 10 µg/mL
"COc1cc(OC)c(NC(=S)Nc2cccnc2NC(=O)c2ccco2)cc1Cl [Example 284, Furan-2-carboxylic acid {3-[3-(5-chloro-2,4-dimethoxy-phenyl)-thioureido]-pyridin-2-yl}-amide]",IC50,HCMV wild-type,0.4 µg/mL
same,IC50,HSV-1,3 µg/mL
same,inhibition at 10 µg/mL,VZV strain Ellen,100%
same,IC50,VZV strain Ellen,> 15 µg/mL
"COc1cc(OC)c(NC(=S)Nc2ccc(NC(=O)c3ccccc3F)nc2)cc1Cl [Example 289, N-{5-[3-(5-Chloro-2,4-dimethoxy-phenyl)-thioureido]-pyridin-2-yl}-2-fluoro-benzamide]",IC50,HCMV wild-type,> 10 µg/mL
same,IC50,HSV-1,0.6 µg/mL
same,inhibition at 10 µg/mL,VZV strain Ellen,30%
same,IC50,VZV strain Ellen,> 10 µg/mL
"COc1cc(OC)c(NC(=S)Nc2cccnc2NC(=O)c2csnn2)cc1Cl [Example 498, [1,2,3]Thiadiazole-4-carboxylic acid {3-[3-(5-chloro-2,4-dimethoxy-phenyl)-thioureido]-pyridin-2-yl}-amide]",IC50,HCMV wild-type,0.14 µg/mL
same,IC50,HSV-1,6 µg/mL
same,inhibition at 10 µg/mL,VZV strain Ellen,14%
same,IC50,VZV strain Ellen,> 10 µg/mL
"COc1cc(OC)c(NC(=S)Nc2ccc(NC(=O)c3ccccn3)nc2)cc1Cl [Example 499, Pyridine-2-carboxylic acid {5-[3-(5-chloro-2,4-dimethoxy-phenyl)-thioureido]-pyridin-2-yl}-amide]",IC50,HCMV wild-type,3 µg/mL
same,IC50,HSV-1,5 µg/mL
same,inhibition at 10 µg/mL,VZV strain Ellen,25%
same,IC50,VZV strain Ellen,> 10 µg/mL
"COc1cc(OC)c(NC(=S)Nc2ccc(NC(=O)c3ccccc3F)cn2)cc1Cl [Example 507, N-{6-[3-(5-Chloro-2,4-dimethoxy-phenyl)-thioureido]-pyridin-3-yl}-2-fluoro-benzamide]",IC50,HCMV wild-type,1.2 µg/mL
same,IC50,HSV-1,10 µg/mL
same,inhibition at 10 µg/mL,VZV strain Ellen,90%
same,IC50,VZV strain Ellen,4 µg/mL
"COc1cc(OC)c(NC(=S)Nc2ccc(NC(=O)c3ccco3)cn2)cc1Cl [Example 512, Furan-2-carboxylic acid {6-[3-(5-chloro-2,4-dimethoxy-phenyl)-thioureido]-pyridin-3-yl}-amide]",IC50,HCMV wild-type,0.7 µg/mL
same,IC50,HSV-1,0.5 µg/mL
same,inhibition at 10 µg/mL,VZV strain Ellen,70%
same,IC50,VZV strain Ellen,4 µg/mL
"COc1cc(OC)c(NC(=S)Nc2ccc(NC(=O)c3csnn3)cn2)cc1Cl [Example 514, [1,2,3]Thiadiazole-4-carboxylic acid {6-[3-(5-chloro-2,4-dimethoxy-phenyl)-thioureido]-pyridin-3-yl}-amide]",IC50,HCMV wild-type,1.2 µg/mL
same,IC50,HSV-1,4 µg/mL
same,inhibition at 10 µg/mL,VZV strain Ellen,62%
same,IC50,VZV strain Ellen,> 10 µg/mL
"O=C(Nc1ccc(NC(=S)NCc2cc(C(F)(F)F)cc(C(F)(F)F)c2)cn1)c1csnn1 [Example 815, N-{5-[({[3,5-bis(trifluoromethyl)benzyl]amino}carbothioyl)amino]-2-pyridinyl}-1,2,3-thiadiazole-4-carboxamide]",IC50,HCMV wild-type,0.0024 µg/mL
same,IC50,VZV strain Ellen,> 7.5 µg/mL
"C[C@H](NC(=S)Nc1ccc(NC(=O)c2csnn2)nc1)c1cc(C(F)(F)F)cc(C(F)(F)F)c1 [Example 816, N-(5-{[({(1S)-1-[3,5-bis(trifluoromethyl)phenyl]ethyl}amino)carbothioyl]amino}-2-pyridinyl)-1,2,3-thiadiazole-4-carboxamide]",IC50,HCMV wild-type,0.0015 µg/mL
same,IC50,VZV strain Ellen,> 7.5 µg/mL
"C[C@H](NC(=S)Nc1ccc(NC(=O)c2cscn2)nc1)c1cc(C(F)(F)F)cc(C(F)(F)F)c1 [Example 817, N-(5-{[({(1S)-1-[3,5-bis(trifluoromethyl)phenyl]ethyl}amino)carbothioyl]amino}-2-pyridinyl)-1,3-thiazole-4-carboxamide]",IC50,HCMV wild-type,0.001 µg/mL
same,IC50,VZV strain Ellen,> 7.5 µg/mL
"CC(NC(=S)Nc1ccc(NC(=O)c2cscn2)nc1)c1cc(C(F)(F)F)ccc1F (stereo not shown) [Example 818, N-(5-{[({1-[2-fluoro-5-(trifluoromethyl)phenyl]ethyl}amino)carbothioyl]amino}-2-pyridinyl)-1,3-thiazole-4-carboxamide]",IC50,HCMV wild-type,0.0022 µg/mL
same,IC50,VZV strain Ellen,> 7.5 µg/mL
"CC(NC(=S)Nc1ccc(NC(=O)c2cscn2)nc1)c1ccc(C(F)(F)F)cc1F (stereo not shown) [Example 819, N-(5-{[({1-[2-fluoro-4-(trifluoromethyl)phenyl]ethyl}amino)carbothioyl]amino}-2-pyridinyl)-1,3-thiazole-4-carboxamide]",IC50,HCMV wild-type,0.0022 µg/mL
same,IC50,VZV strain Ellen,> 7.5 µg/mL
"CC(NC(=S)Nc1ccc(NC(=O)c2cscn2)nc1)c1cc(F)cc(C(F)(F)F)c1 (stereo not shown) [Example 820, N-(5-{[({1-[3-fluoro-5-(trifluoromethyl)phenyl]ethyl}amino)carbothioyl]amino}-2-pyridinyl)-1,3-thiazole-4-carboxamide]",IC50,HCMV wild-type,0.0013 µg/mL
same,IC50,VZV strain Ellen,3.4 µg/mL
"C[C@H](NC(=O)Nc1ccc(NC(=O)c2cscn2)nc1)c1cc(C(F)(F)F)cc(C(F)(F)F)c1 [Example 821, N-(5-{[({(1S)-1-[3,5-bis(trifluoromethyl)phenyl]ethyl}amino)carbonyl]amino}-2-pyridinyl)-1,3-thiazole-4-carboxamide]",IC50,HCMV wild-type,0.014 µg/mL
same,IC50,VZV strain Ellen,> 7.5 µg/mL
"CC(NC(=S)Nc1ccc(NC(=O)c2cscn2)nc1)c1cccc(Br)c1 (stereo not shown) [Example 822, N-{5-[({[1-(3-bromophenyl)ethyl]amino}carbothioyl)amino]-2-pyridinyl}-1,3-thiazole-4-carboxamide]",IC50,HCMV wild-type,0.05 µg/mL
same,IC50,VZV strain Ellen,> 7.5 µg/mL
"CC(NC(=S)Nc1ccc(NC(=O)c2cscn2)nc1)c1ccccc1Br (stereo not shown) [Example 823, N-{5-[({[1-(2-bromophenyl)ethyl]amino}carbothioyl)amino]-2-pyridinyl}-1,3-thiazole-4-carboxamide]",IC50,HCMV wild-type,0.05 µg/mL
same,IC50,VZV strain Ellen,> 7.5 µg/mL
"CC(NC(=S)Nc1ccc(NC(=O)c2cscn2)nc1)c1cccc(C(F)(F)F)c1 (stereo not shown) [Example 824, N-(5-{[({1-[3-(trifluoromethyl)phenyl]ethyl}amino)carbothioyl]amino}-2-pyridinyl)-1,3-thiazole-4-carboxamide]",IC50,HCMV wild-type,0.004 µg/mL
same,IC50,VZV strain Ellen,3.2 µg/mL
"CC(NC(=S)Nc1ccc(NC(=O)c2cscn2)nc1)c1ccc(Cl)c(C(F)(F)F)c1 (stereo not shown) [Example 825, N-(5-{[({1-[4-chloro-3-(trifluoromethyl)phenyl]ethyl}amino)carbothioyl]amino}-2-pyridinyl)-1,3-thiazole-4-carboxamide]",IC50,HCMV wild-type,0.003 µg/mL
same,IC50,VZV strain Ellen,6.12 µg/mL
"CC(NC(=S)Nc1ccc(NC(=O)c2cscn2)nc1)c1ccc(Cl)c(F)c1 (stereo not shown) [Example 826, N-{5-[({[1-(4-chloro-3-fluorophenyl)ethyl]amino}carbothioyl)amino]-2-pyridinyl}-1,3-thiazole-4-carboxamide]",IC50,HCMV wild-type,0.02 µg/mL
same,IC50,VZV strain Ellen,0.86 µg/mL
"CC(NC(=S)Nc1ccc(NC(=O)c2cscn2)nc1)c1ccc(Cl)cc1F (stereo not shown) [Example 827, N-{5-[({[1-(4-chloro-2-fluorophenyl)ethyl]amino}carbothioyl)amino]-2-pyridinyl}-1,3-thiazole-4-carboxamide]",IC50,HCMV wild-type,0.026 µg/mL
"N-(6-{[({(1S)-1-[3,5-bis(trifluoromethyl)phenyl]ethyl}amino)carbothioyl]amino}-3-pyridinyl)-1,2,3-thiadiazole-4-carboxamide [Example 829]",IC50 (ug/ml) HCMV,HCMV wild-type,0.08 µg/mL
same,IC50 (ug/ml) VZV,VZV strain Ellen,>7.5 µg/mL
"N-{6-[({[1-(4-fluorophenyl)ethyl]amino}carbothioyl)amino]-3-pyridinyl}-1,2,3-thiadiazole-4-carboxamide [Example 828]",IC50 (ug/ml) HCMV,HCMV wild-type,0.45 µg/mL
same,IC50 (ug/ml) VZV,VZV strain Ellen,>7.5 µg/mL
